Results: patent publication US7022669B1, “Echinocandin derivatives, method for preparing same and application as antifungal agents” (Aventis Pharma S.A., priority 1999, dated 2006)

Target: T1, Glucan Synthase of Candida albicans (Candida albicans, UniProt O13428)
T1 construct: endogenous in cells
Test: Inhibition of the Glucan Synthase of Candida albicans (14C-UDP glucose incorporation, membrane proteins)
Format: biochemical
Settings: Candida albicans membranes, 25° C., 1 hour, radioactivity counted
Experimental: A—Inhibition of the Glucan Synthase of Candida albicans.
Candida albicans membranes were purified according to the process described by Tang et al Antimicrob. Agents Chemother 35, 99–103, 1991. 22.5 μg of membrane proteins are incubated in a mixture of 2 Mm of 14C-UDP glucose (specific activity=0.34 mCi./mmol, 50 μg of α-amylase, 1 Mm of dithiotreitol (DTT), 1 Mm EDTA, 100 Mm NaF, 7 μM of GTP-γ-S, 1M of sucrose and 50 Mm of Tris-HCL (pH 7.8) in a volume of 100 μl. The medium is incubated at 25° C. for 1 hour and the reaction is terminated by adding TCA at a final concentration of 5%. The reaction mixture is transferred onto a pre-humidified glass fibre filter. The filter is washed, dried and its radioactivity is counted. Mulundocandine is used as a positive control. Control of the vehicle is carried out with the same quantity of 1% DMSO. […] The enzyme is prepared according to the process of Beaulieu et al.(Antimicrob. Agents Chemother 38, 937–944, 1994. The protocol used is identical to the protocol described above for the enzyme of Candida albicans except that dithiotreitol is not used in the reaction mixture.

T1 sequence (O13428 1-1897): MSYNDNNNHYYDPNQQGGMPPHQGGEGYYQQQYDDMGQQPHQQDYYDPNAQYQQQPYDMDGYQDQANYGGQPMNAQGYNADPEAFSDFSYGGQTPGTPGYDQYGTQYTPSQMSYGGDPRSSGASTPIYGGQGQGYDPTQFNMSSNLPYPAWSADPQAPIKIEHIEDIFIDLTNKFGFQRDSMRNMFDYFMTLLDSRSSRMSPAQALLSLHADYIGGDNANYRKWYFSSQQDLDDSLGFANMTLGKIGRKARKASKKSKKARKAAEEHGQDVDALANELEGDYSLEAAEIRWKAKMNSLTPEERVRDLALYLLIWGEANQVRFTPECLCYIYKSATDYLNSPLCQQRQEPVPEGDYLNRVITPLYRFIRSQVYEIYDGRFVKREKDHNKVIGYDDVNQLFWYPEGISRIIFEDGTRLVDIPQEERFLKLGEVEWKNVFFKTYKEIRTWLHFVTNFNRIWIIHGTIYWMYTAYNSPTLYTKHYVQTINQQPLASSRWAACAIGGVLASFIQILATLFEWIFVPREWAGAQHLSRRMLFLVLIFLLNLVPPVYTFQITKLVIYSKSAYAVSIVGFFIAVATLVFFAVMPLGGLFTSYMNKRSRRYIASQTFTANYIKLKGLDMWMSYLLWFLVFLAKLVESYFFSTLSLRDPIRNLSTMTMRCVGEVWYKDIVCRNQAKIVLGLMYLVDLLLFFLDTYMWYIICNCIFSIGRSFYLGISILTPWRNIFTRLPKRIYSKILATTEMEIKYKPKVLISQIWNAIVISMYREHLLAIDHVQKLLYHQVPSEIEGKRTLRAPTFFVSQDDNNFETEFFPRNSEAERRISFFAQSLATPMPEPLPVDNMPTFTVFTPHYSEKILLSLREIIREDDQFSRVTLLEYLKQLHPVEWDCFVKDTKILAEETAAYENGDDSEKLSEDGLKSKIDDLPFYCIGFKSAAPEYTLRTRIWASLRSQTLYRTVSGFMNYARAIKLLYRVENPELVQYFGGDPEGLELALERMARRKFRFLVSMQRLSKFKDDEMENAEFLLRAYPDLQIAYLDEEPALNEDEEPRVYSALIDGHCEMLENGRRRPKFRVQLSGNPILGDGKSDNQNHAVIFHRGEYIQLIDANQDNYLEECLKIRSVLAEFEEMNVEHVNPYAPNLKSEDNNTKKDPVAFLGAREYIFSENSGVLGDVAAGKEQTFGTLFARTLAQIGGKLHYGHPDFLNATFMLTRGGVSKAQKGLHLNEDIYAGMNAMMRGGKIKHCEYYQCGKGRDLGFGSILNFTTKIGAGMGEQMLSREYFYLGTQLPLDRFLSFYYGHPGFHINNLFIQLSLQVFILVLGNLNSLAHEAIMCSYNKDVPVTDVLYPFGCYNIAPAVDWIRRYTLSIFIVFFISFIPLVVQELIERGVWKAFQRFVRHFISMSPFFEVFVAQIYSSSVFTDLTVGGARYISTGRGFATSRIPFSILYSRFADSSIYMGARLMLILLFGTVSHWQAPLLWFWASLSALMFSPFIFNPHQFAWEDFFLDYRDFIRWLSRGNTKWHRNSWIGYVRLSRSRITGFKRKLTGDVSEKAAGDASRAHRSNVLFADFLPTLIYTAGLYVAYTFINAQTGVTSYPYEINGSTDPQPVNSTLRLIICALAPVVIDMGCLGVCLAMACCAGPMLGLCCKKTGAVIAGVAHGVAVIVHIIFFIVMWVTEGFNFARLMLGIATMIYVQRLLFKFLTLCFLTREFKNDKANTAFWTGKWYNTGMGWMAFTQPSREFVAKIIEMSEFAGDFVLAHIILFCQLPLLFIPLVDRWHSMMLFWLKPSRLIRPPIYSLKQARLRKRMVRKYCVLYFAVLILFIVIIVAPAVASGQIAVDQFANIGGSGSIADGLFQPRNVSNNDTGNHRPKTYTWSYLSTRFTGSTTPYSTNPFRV
T1 sequence (O42825 1-195 partner limits assumed): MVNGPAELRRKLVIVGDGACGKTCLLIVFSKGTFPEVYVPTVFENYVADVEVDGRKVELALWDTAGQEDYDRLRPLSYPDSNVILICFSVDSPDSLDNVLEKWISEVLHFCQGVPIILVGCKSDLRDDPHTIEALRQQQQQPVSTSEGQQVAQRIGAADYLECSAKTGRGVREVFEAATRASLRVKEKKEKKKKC

Trans 1-[4-[(2-aminocyclo-hexyl)-amino]-N2-[[4″-(pentyloxy) [1,1′:4′,1″-terphenyl]-4-yl]-carbonyl]-L-ornithine]-4-[4-(4-hydroxyphenyl)-L-threonine]-5-L-serine-echinocandine B trifluoroacetate (isomer A) [Example 3 isomer A]
Inhibition of the glucan synthase of Candida albicans: good activity
